According to ChEMBL document CHEMBL1156261, “Evaluation of substituted N,N'-diarylsulfonamides as activators of the tumor cell specific M2 isoform of pyruvate kinase” (J Med Chem, 2010):
Activity calls are given as the source filed them. No rule for the calls is given here.

Biological target: Pyruvate kinase (Leishmania mexicana) (UniProt Q27686)
Test: Activation of Leishmania mexicana pyruvate kinase by quantitative high throughput screening assay

| SMILES | Activity |
| --- | --- |
| O=S(=O)(NC1CCN(S(=O)(=O)c2c(F)cccc2F)CC1)c1ccc2c(c1)OCCO2 | inactive |
| Nc1cccc(S(=O)(=O)N2CCN(S(=O)(=O)c3c(F)cccc3F)CC2)c1 | inactive |
| Nc1cccc(S(=O)(=O)N2CCCN(S(=O)(=O)c3ccc4c(c3)OCCO4)CC2)c1 | inactive |
| Nc1cccc(S(=O)(=O)N2CCN(S(=O)(=O)c3ccc4c(c3)OCCO4)CC2)c1 | inactive |
| O=S(=O)(c1ccc2ccccc2c1)N1CCN(S(=O)(=O)c2c(F)cccc2F)CC1 | inactive |
| O=C(c1c(F)cccc1F)N1CCN(S(=O)(=O)c2ccc3c(c2)OCCO3)CC1 | inactive |
| O=S(=O)(NC1CCN(S(=O)(=O)c2ccc3c(c2)OCCO3)C1)c1c(F)cccc1F (centres undefined) | inactive |
| O=C1CN(S(=O)(=O)c2c(F)cccc2F)CCN1S(=O)(=O)c1ccc2c(c1)OCCO2 | inactive |
| C[C@H]1CN(S(=O)(=O)c2ccc3c(c2)OCCO3)CCN1S(=O)(=O)c1c(F)cccc1F | inactive |
| O=S(=O)(c1cccc(F)c1)N1CCN(S(=O)(=O)c2ccc3c(c2)OCCO3)CC1 | inactive |
| N#Cc1ccc(S(=O)(=O)N2CCN(S(=O)(=O)c3ccc4c(c3)OCCO4)CC2)cc1 | inactive |
| COc1cc(F)c(S(=O)(=O)N2CCN(S(=O)(=O)c3cccc(N)c3)CC2)c(F)c1 | inactive |
| O=S(=O)(NCCCNS(=O)(=O)c1c(F)cccc1F)c1ccc2c(c1)OCCO2 | inactive |
| COc1ccc(S(=O)(=O)N2CCN(S(=O)(=O)c3ccc(OC)cc3)CC2)cc1 | inactive |
| O=S(=O)(c1ccc2c(c1)OCCO2)N1CCN(S(=O)(=O)c2ccc(F)cc2F)CC1 | inactive |
| C[C@H]1CN(S(=O)(=O)c2c(F)cccc2F)CCN1S(=O)(=O)c1ccc2c(c1)OCCO2 | inactive |
| O=S(=O)(NCC1CN(S(=O)(=O)c2ccc3c(c2)OCCO3)C1)c1c(F)cccc1F | inactive |
| COc1ccc(S(=O)(=O)N2CCN(S(=O)(=O)c3c(F)cccc3F)CC2)cc1 | inactive |
| O=S(=O)(c1ccc2c(c1)OCO2)N1CCN(S(=O)(=O)c2c(F)cccc2F)CC1 | inactive |
| O=S(=O)(c1cccc(C(F)(F)F)c1)N1CCN(S(=O)(=O)c2ccc3c(c2)OCCO3)CC1 | inactive |
| O=S(=O)(c1ccc2c(c1)OCCO2)N1CCN(S(=O)(=O)c2ccccn2)CC1 | inactive |
| CC1(C)CCc2cc(S(=O)(=O)N3CCN(S(=O)(=O)c4c(F)cccc4F)CC3)ccc2O1 | inactive |
| COc1ccc(S(=O)(=O)N2CCN(S(=O)(=O)c3ccc4c(c3)OCCO4)CC2)cc1 | inactive |
| O=S(=O)(c1ccccc1)N1CCN(S(=O)(=O)c2ccc3c(c2)OCCO3)CC1 | inactive |
| O=S(=O)(c1ccc2c(c1)OCCO2)N1CCN(S(=O)(=O)c2cccc[n+]2[O-])CC1 | inactive |
| O=S(=O)(N[C@H]1CC[C@H](NS(=O)(=O)c2c(F)cccc2F)CC1)c1ccc2c(c1)OCCO2 | inactive |
| O=C(c1ccc2c(c1)OCCO2)N1CCN(S(=O)(=O)c2c(F)cccc2F)CC1 | inactive |

| SMILES | Activity |
| --- | --- |
| COc1cc(F)c(S(=O)(=O)N2CCCN(S(=O)(=O)c3cccc(N)c3)CC2)c(F)c1 | inactive |
| O=S(=O)(c1ccc2c(c1)OCCO2)N1CCN(S(=O)(=O)c2cc(F)c(F)cc2F)CC1 | inactive |
| O=S(=O)(c1ccc(F)cc1)N1CCN(S(=O)(=O)c2ccc3c(c2)OCCO3)CC1 | inactive |
| O=S(=O)(c1ccc2c(c1)OCCCO2)N1CCN(S(=O)(=O)c2c(F)cccc2F)CC1 | inactive |
| O=S(=O)(c1ccc2c(c1)OCCO2)N1CCN(S(=O)(=O)c2c(F)cccc2F)CC1 | inactive |
| O=S(=O)(c1ccc2c(c1)OCCO2)N1CCCN(S(=O)(=O)c2c(F)cccc2F)CC1 | inactive |
| O=S(=O)(c1ccc(Cl)cc1)N1CCN(S(=O)(=O)c2ccc3c(c2)OCCO3)CC1 | inactive |
| O=S(=O)(c1ccc2c(c1)OCCO2)N1CCN(S(=O)(=O)c2ccccc2F)CC1 | inactive |
| O=S(=O)(NCCCCCNS(=O)(=O)c1c(F)cccc1F)c1ccc2c(c1)OCCO2 | inactive |
| O=S(=O)(NC1CCN(S(=O)(=O)c2ccc3c(c2)OCCO3)CC1)c1c(F)cccc1F | inactive |
| O=S(=O)(c1ccc2c(c1)OCCO2)N1CCN(S(=O)(=O)c2ccc3c(c2)OCCO3)CC1 | inactive |
| O=S(=O)(c1c(F)cccc1F)N1CCN(S(=O)(=O)c2c(F)cccc2F)CC1 | inactive |
| O=S(=O)(c1ccc2c(c1)OCCO2)N1CCN(S(=O)(=O)c2c(F)ccc(O)c2F)CC1 | inactive |
| O=S(=O)(NCC1CN(S(=O)(=O)c2c(F)cccc2F)C1)c1ccc2c(c1)OCCO2 | inactive |
| Cn1ccc2cc(S(=O)(=O)N3CCN(S(=O)(=O)c4c(F)cccc4F)CC3)ccc21 | inactive |
| C[C@@H]1CN(S(=O)(=O)c2ccc3c(c2)OCCO3)CCN1S(=O)(=O)c1c(F)cccc1F | inactive |
| C[C@@H]1CN(S(=O)(=O)c2c(F)cccc2F)CCN1S(=O)(=O)c1ccc2c(c1)OCCO2 | inactive |
| O=S(=O)(NC1CCN(S(=O)(=O)c2c(F)cccc2F)C1)c1ccc2c(c1)OCCO2 (centres undefined) | inactive |
| O=S(=O)(NCCCCNS(=O)(=O)c1c(F)cccc1F)c1ccc2c(c1)OCCO2 | inactive |
| O=C1CN(S(=O)(=O)c2ccc3c(c2)OCCO3)CCN1S(=O)(=O)c1c(F)cccc1F | inactive |
| O=S(=O)(NCCCCCCNS(=O)(=O)c1c(F)cccc1F)c1ccc2c(c1)OCCO2 | inactive |
| O=S(=O)(NCCNS(=O)(=O)c1c(F)cccc1F)c1ccc2c(c1)OCCO2 | inactive |
| O=S(=O)(N[C@H]1CC[C@@H](NS(=O)(=O)c2c(F)cccc2F)CC1)c1ccc2c(c1)OCCO2 | inactive |
| COc1cccc(S(=O)(=O)N2CCN(S(=O)(=O)c3ccc4c(c3)OCCO4)CC2)c1 | inactive |
| O=S(=O)(c1ccc2c(c1)OCCO2)C1CCN(S(=O)(=O)c2c(F)cccc2F)CC1 | inactive |
| COc1cc(F)c(S(=O)(=O)N2CCN(S(=O)(=O)c3ccc4c(c3)OCCO4)CC2)c(F)c1 | inactive |
| O=S(=O)(c1c(F)cccc1F)C1CCN(S(=O)(=O)c2ccc3c(c2)OCCO3)CC1 | inactive |
